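Grown in 96-well plates, cells were treated for 48 hours with each compound at five concentrations. Insufficient inhibition: endpoint recorded as highest concentration tested. The concentration for 50% growth inhibition is given as GI50. At the TGI there is no net growth.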
How the values were obtained:
Test in all cases: NCI-60 cell line screen, 48 h
LOX IMVI melanoma = tested on: LOX IMVI melanoma
U251 CNS = tested on: U251 CNS
A549 NSCLC = tested on: A549 NSCLC
RPMI-8226 leukemia = tested on: RPMI-8226 leukemia
KM12 colon = tested on: KM12 colon
NCI/ADR-RES ovarian = tested on: NCI/ADR-RES ovarian
ACHN renal = tested on: ACHN renal
M14 melanoma = tested on: M14 melanoma
SW-620 colon = tested on: SW-620 colon
HT29 colon = tested on: HT29 colon

Compound | TGI (LOX IMVI melanoma) [µM] | TGI (U251 CNS) [µM] | TGI (A549 NSCLC) [µM] | TGI (RPMI-8226 leukemia) [µM] | TGI (KM12 colon) [µM] | TGI (NCI/ADR-RES ovarian) [µM] | TGI (ACHN renal) [µM] | TGI (M14 melanoma) [µM] | TGI (SW-620 colon) [µM] | TGI (HT29 colon) [µM] | GI50 (LOX IMVI melanoma) [µM] | GI50 (HT29 colon) [µM] | GI50 (U251 CNS) [µM] | GI50 (A549 NSCLC) [µM] | GI50 (RPMI-8226 leukemia) [µM] | GI50 (KM12 colon) [µM] | GI50 (NCI/ADR-RES ovarian) [µM] | GI50 (ACHN renal) [µM] | GI50 (M14 melanoma) [µM] | GI50 (SW-620 colon) [µM]
CC(=O)OC(C)(C)/C=C/C(=O)[C@](C)(O)[C@H]1[C@H](O)C[C@@]2(C)[C@@H]3CC=C4[C@@H](C[C@H](O)C(=O)C4(C)C)[C@]3(C)C(=O)C[C@]12C | < 0.01 | < 0.01 | 11.4 | < 0.01 | 13.6 | 15.2 | < 0.03 | < 0.01 | 7.54 | – | – | – | – | – | – | – | – | – | – | –
COC(=O)c1ccc(N=NN(C)CO)cc1 | > 100 | > 100 | > 100 | > 100 | > 100 | – | > 100 | > 100 | > 100 | > 100 | – | – | – | – | – | – | – | – | – | –
CS(=O)c1ccc(COP(N)(=O)N(CCCl)CCCl)cc1 (stereo not drawn) | > 100 | > 100 | > 100 | > 100 | > 100 | – | > 100 | > 100 | > 100 | > 100 | – | – | – | – | – | – | – | – | – | –
CCOC(=O)CC1=CSC2=NCCN12 | > 100 | > 100 | > 100 | – | > 100 | – | > 100 | > 100 | > 100 | > 100 | – | – | – | – | – | – | – | – | – | –
C=C(CN1CCc2ccccc2C1)c1ccc(C(=O)Nc2ccc(N)cc2)cc1 | 55.7 | > 100 | 52.5 | 19 | 48.4 | > 100 | > 100 | 65.6 | > 100 | 43.2 | 17.7 | 19.6 | 28.2 | 18.7 | 2.5 | 20.4 | 19.1 | 30 | 11.8 | 30.5
Cc1ccc2c(=O)c3cccc(CC(=O)O)c3oc2c1C | > 100 | > 100 | > 100 | > 100 | > 100 | > 100 | > 100 | > 100 | > 100 | > 100 | > 100 | > 100 | > 100 | > 100 | > 100 | > 100 | > 100 | > 100 | > 100 | > 100
O=S1(=O)C[C@@H](O)[C@H](O)CS1 | > 100 | > 100 | > 100 | > 100 | > 100 | – | > 100 | > 100 | > 100 | > 100 | – | – | – | – | – | – | – | – | – | –
Cc1c2cc[nH]c(=O)c2cc2c(=O)c3cnccc3[nH]c12 | > 100 | > 100 | > 100 | > 100 | > 100 | – | > 100 | > 100 | > 100 | > 100 | – | – | – | – | – | – | – | – | – | –
O=c1cc(-c2ccccc2)nc2n1CCN2Cc1ccccc1 | > 100 | > 100 | > 100 | 39.9 | > 100 | – | 76.7 | > 100 | > 100 | > 100 | 29.8 | 58.1 | 30.5 | 35.2 | 15.6 | 35.7 | – | 25 | 37.9 | 39.1
CCOC(=O)C(C)c1cc(C2(C)OCCO2)c(C)o1 (stereo not drawn) | > 100 | > 100 | > 100 | > 100 | > 100 | – | > 100 | > 100 | > 100 | – | – | – | – | – | – | – | – | – | – | –
O=C1C=Cc2ccccc2/C1=C/c1[nH]c(=O)[nH]c1O | > 100 | 35 | 61.6 | > 100 | 9.34 | > 100 | > 100 | > 100 | – | 17.1 | 7 | 4.35 | 5.39 | 19.8 | 45.2 | 2.99 | 20.3 | 9.97 | 4.42 | –
CC(C(=O)Oc1ccc2ccccc2c1-c1c(O)ccc2ccccc12)c1ccccc1 (stereo not drawn) | – | 28.7 | 30 | 57.6 | 26.1 | – | 26.6 | 27.7 | 31.8 | 28.8 | – | – | – | – | – | – | – | – | – | –
COC(=O)c1c(CC#N)cccc1CC#N | > 100 | > 100 | > 100 | > 100 | > 100 | – | > 100 | > 100 | > 100 | > 100 | – | – | – | – | – | – | – | – | – | –
ON=C1CCC(c2ccccc2)CC1 (stereo not drawn) | > 100 | > 100 | > 100 | – | > 100 | – | > 100 | > 100 | > 100 | > 100 | – | – | – | – | – | – | – | – | – | –
COC(=O)C(Nc1ccc(OC)cc1)c1ccccc1 (stereo not drawn) | > 100 | – | > 100 | > 100 | > 100 | > 100 | > 100 | > 100 | > 100 | > 100 | – | – | – | – | – | – | – | – | – | –
CCOC(=O)c1ccc(N2C(=O)/C(=C\OC)c3ccccc3C2=O)cc1 | – | > 100 | > 100 | > 100 | > 100 | – | > 100 | – | > 100 | > 100 | – | – | – | – | – | – | – | – | – | –
S=C(N/N=C/c1ccccn1)Nc1ccccn1 | 23.1 | 24 | 76.6 | > 100 | > 100 | > 100 | > 100 | – | > 100 | > 100 | 0.705 | 3.1 | 1.07 | 2.34 | 1.44 | 2.87 | 1.74 | 1.56 | – | 1.7
Nc1c(-c2nc3ccccc3[nH]2)sc(=S)n1-c1ccccc1 | – | > 100 | > 100 | > 100 | > 100 | – | > 100 | > 100 | > 100 | > 100 | – | – | – | – | – | – | – | – | – | –
O=C([CH-]C(=O)c1ccccc1)c1ccccc1.O=C([CH-]C(=O)c1ccccc1)c1ccccc1.[Nd+3].[OH-].[OH3+] | – | 40.3 | 51.5 | – | 49.6 | – | 30.1 | 32.6 | 39.8 | 26.2 | – | 8.8 | 7.13 | 17.2 | 6.04 | 6.27 | – | 10.1 | 13.7 | 6.89
COc1ccc(/C=C2/C[N+](C)(C)C/C(=C/c3ccc(OC)cc3)C2=O)cc1 | > 100 | > 63.9 | > 100 | 31.1 | 36.3 | – | > 100 | > 100 | > 100 | > 100 | – | – | – | – | – | – | – | – | – | –

Reference: PubChem BioAssay (NCI)
